Several values for one entry are separate records, joined by “and”; a condition that tells them apart may be missing. Equal values may be shown once. Read-outs that look alike come from different tables or passages of the source. Marks after values point to notes of the source that are not given here.
Tests used:
[1] = system: Punta Toro virus; format: cell-based
[2] = system: influenza virus (PR/8(H1N1)); test: microbe, parasite or virus in culture; format: cell-based; conditions: for IC50: unidentified influenza virus, MDCK, MDCK cells
[3] = target: RdRp of the influenza virus (replicon activity) (Influenza A virus, UniProt P03431); test: Influenza virus RdRp replicon reporter (Luc) assay in transduced 293T cells; format: cell-based, Influenza A/PR/8/34 (H1N1); conditions: for inhibition at 10 µM: read-out: Replicon inhibiting percentage; for IC50: read-out: T-705 50% inhibitory concentration
[4] = system: 293T cells; test: Amount of intracellular T-705RTP in 293T cells by LC/MS/MS; format: cell-based, human; conditions: 293T cells cultured 24 hours with T-705 and 6-mercaptopurine; FIG. 1
Method: As described above, the pyrazine derivative or a salt thereof undergoes ribosyl phosphorylation in a cell. […] In order to examine whether or not the effect of 6-mercaptopurine to reinforce the activity of T-705, which was shown in Test Example 1, is caused by a change in the amount of T-705RTP, the amount of T-705RTP in 293T cells was measured under the treatment with 6-mercaptopurine.
293T cells (5×10^5 cells) seeded in each well of a 6-well plate were cultured with a vehicle (0.3% DMSO) or with 6-mercaptopurine, T-705, or the two drugs in various concentrations, under conditions of 5% CO2 at 37° C. for 24 hours.
After completion of the culture, the reaction mixture was washed with 2 ml of PBS, and 300 μl of trypsin was then added thereto. The obtained mixture was left at rest at 37° C. for 5 minutes, and the cells were then removed. Subsequently, 400 μl of a trypsin inhibitor was added and suspended into the cells, and the cell suspension was then recovered in a 1.5-ml tube. The cell suspension was centrifuged at 1,000 rpm at 4° C. for 2 minutes (MX-301, TOMY), and 500 μl of a supernatant was then removed. […]
The measurement of the number of cells and an LC/MS/MS analysis were carried out, and the amount of T-705RTP in each sample was then measured. […]

[5] = system: influenza virus (PR/8(H1N1)); format: cell-based
[6] = HEK-293T, T-705 10 μM, antimetabolite 0.08 μM
[7] = HEK-293T, T-705 10 μM, antimetabolite 0.4 μM
[8] = HEK-293T, T-705 10 μM, antimetabolite 2.0 μM
[9] = HEK-293T, T-705 10 μM, antimetabolite 10.0 μM
[10] = T-705 0 μM, antimetabolite 0.08 μM
[11] = T-705 0 μM, antimetabolite 0.4 μM
[12] = T-705 0 μM, antimetabolite 2.0 μM
[13] = T-705 0 μM, antimetabolite 10.0 μM
[14] = HEK-293T, single agent, without T-705, read-out: replicon inhibiting percentage

RdRp of the influenza virus (replicon activity), sequence (P03431 whole entry, looked up): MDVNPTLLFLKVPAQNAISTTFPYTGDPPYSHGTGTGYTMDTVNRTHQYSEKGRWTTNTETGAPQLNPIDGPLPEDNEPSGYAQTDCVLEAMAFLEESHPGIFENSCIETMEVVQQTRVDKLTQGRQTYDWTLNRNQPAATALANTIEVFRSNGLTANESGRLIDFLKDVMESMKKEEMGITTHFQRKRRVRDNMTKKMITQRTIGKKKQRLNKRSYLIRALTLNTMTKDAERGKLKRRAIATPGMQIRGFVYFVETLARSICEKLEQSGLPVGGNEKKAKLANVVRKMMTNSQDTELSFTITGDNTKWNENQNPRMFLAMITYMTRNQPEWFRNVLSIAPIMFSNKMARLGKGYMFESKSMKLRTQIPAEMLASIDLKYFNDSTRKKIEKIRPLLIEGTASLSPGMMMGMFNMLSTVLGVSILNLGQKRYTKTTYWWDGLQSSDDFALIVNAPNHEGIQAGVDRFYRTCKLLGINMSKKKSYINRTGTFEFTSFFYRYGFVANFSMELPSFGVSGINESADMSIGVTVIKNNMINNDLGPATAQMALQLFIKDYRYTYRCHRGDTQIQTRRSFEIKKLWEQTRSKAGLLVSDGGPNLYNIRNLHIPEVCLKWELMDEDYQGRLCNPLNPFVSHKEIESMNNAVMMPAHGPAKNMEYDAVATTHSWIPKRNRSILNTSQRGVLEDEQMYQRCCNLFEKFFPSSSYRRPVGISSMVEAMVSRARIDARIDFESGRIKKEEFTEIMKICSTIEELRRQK

SMILES: NC(=O)c1csc([C@@H]2O[C@H](CO)[C@@H](O)[C@H]2O)n1 [Tiazofurin, tiazofurin]
- LogTCID50 value that shows the effect of reducing the virus amount with respect to the infection control [1]: excellent effect of reducing the virus amount

SMILES: Sc1ncnc2nc[nH]c12 [6-Mercaptopurine, 6-mercaptopurine]
- CPE inhibitory effects ([2]; single agent, 10 μM): did not exhibit CPE inhibitory effects
- inhibition at 10 µM [3, 6]: 1.8%
- inhibition at 10 µM [3, 7]: 3.7%
- inhibition at 10 µM [3, 8]: 17%
- inhibition at 10 µM [3, 9]: 38%
- inhibition at 200 µM ([3]; HEK-293T, single agent, <200 μM, without T-705, read-out: replicon inhibiting percentage): < 50%
- Replicon inhibiting percentage [3, 10]: −1.1%
- Replicon inhibiting percentage [3, 11]: 1.5%
- Replicon inhibiting percentage [3, 12]: 2.7%
- Replicon inhibiting percentage [3, 13]: 8.2%
- amount of T-705RTP in the cells after the treatment of T-705 [4]: increased

SMILES: C#CCC(Cc1cnc2nc(N)nc(N)c2n1)c1ccc(C(=O)N[C@@H](CCC(=O)O)C(=O)O)cc1 (some centres unmarked) [Pralatrexate, pralatrexate]
- inhibition at 10 µM [3, 6]: 33%
- inhibition at 10 µM [3, 7]: 33%
- inhibition at 10 µM [3, 8]: 33%
- inhibition at 10 µM [3, 9]: 35%
- inhibition at 20 µM [3, 14]: < 50%
- Replicon inhibiting percentage [3, 10]: 24%
- Replicon inhibiting percentage [3, 11]: 23%
- Replicon inhibiting percentage [3, 12]: 2%
- Replicon inhibiting percentage [3, 13]: 23%

SMILES: CN(Cc1cnc2nc(N)nc(N)c2n1)c1ccc(C(=O)N[C@@H](CCC(=O)O)C(=O)O)cc1 [Methotrexate, methotrexate]
- inhibition at 10 µM [3, 6]: 11%
- inhibition at 10 µM [3, 7]: 36%
- inhibition at 10 µM [3, 8]: 34%
- inhibition at 10 µM [3, 9]: 37%
- inhibition at 20 µM [3, 14]: < 50%
- Replicon inhibiting percentage [3, 10]: 1.3%
- Replicon inhibiting percentage [3, 11]: 18%
- Replicon inhibiting percentage [3, 12]: 20%
- Replicon inhibiting percentage [3, 13]: 19%

SMILES: Nc1nc2nc[nH]c2c(=S)[nH]1 [Thioguanine]
- inhibition at 10 µM [3, 6]: -1.2%
- inhibition at 10 µM [3, 8]: 14%
- inhibition at 10 µM [3, 9]: 23%
- Replicon inhibiting percentage [3, 10]: −4.8%
- Replicon inhibiting percentage [3, 11]: −5.4%
- Replicon inhibiting percentage [3, 12]: −3.7%
- Replicon inhibiting percentage [3, 13]: 12%

SMILES: NC(=O)c1nc(F)cnc1O [T-705, 6-Fluoro-3-hydroxy-2-pyrazinecarboxamide]
- IC50 ([2]; read-out: T-705 50% concentration (50% inhibitory concentration of T-705), 6-Mercaptopurine concentration 0 μM): 1.97 µM
- IC50 ([2]; read-out: T-705 50% concentration (50% inhibitory concentration of T-705), 6-Mercaptopurine concentration 0.1 μM): 1.83 µM
- IC50 ([2]; read-out: T-705 50% concentration (50% inhibitory concentration of T-705), 6-Mercaptopurine concentration 0.3 μM): 1.32 µM
- IC50 ([2]; read-out: T-705 50% concentration (50% inhibitory concentration of T-705), 6-Mercaptopurine concentration 1 μM): 0.77 µM
- IC50 ([2]; read-out: T-705 50% concentration (50% inhibitory concentration of T-705), 6-Mercaptopurine concentration 3 μM): 0.7 µM
- IC50 ([2]; read-out: T-705 50% concentration (50% inhibitory concentration of T-705), 6-Mercaptopurine concentration 10 μM): 0.38 µM
- LogTCID50 value that shows the effect of reducing the virus amount with respect to the infection control [1]: 1.0*
- IC50 ([3]; 6-Mercaptopurine concentration 0 μM): 310 µM
- IC50 ([3]; 6-Mercaptopurine concentration 0.03 μM): 303 µM
- IC50 ([3]; 6-Mercaptopurine concentration 0.09 μM): 275 µM
- IC50 ([3]; 6-Mercaptopurine concentration 0.27 μM): 219 µM
- IC50 ([3]; 6-Mercaptopurine concentration 0.82 μM): 163 µM
- IC50 ([3]; 6-Mercaptopurine concentration 2.5 μM): 67 µM
- IC50 ([3]; 6-Mercaptopurine concentration 7.4 μM): 16 µM
- IC50 ([3]; 6-Mercaptopurine concentration 22 μM): 2.3 µM
- IC50 ([3]; 6-Mercaptopurine concentration 67 μM): 5.1 µM
- IC50 ([3]; 6-Mercaptopurine concentration 200 μM): 23 µM
- IC50 ([3]; Methotrexate concentration 0 μM): 314 µM
- IC50 ([3]; Methotrexate concentration 0.08 μM): 46 µM
- IC50 ([3]; Methotrexate concentration 0.16 μM): 43 µM
- IC50 ([3]; Methotrexate concentration 0.31 μM): 41 µM
- IC50 ([3]; Methotrexate concentration 0.63 μM): 47 µM
- IC50 ([3]; Methotrexate concentration 1.25 μM): 40 µM
- IC50 ([3]; Methotrexate concentration 2.5 μM): 38 µM
- IC50 ([3]; Methotrexate concentration 5 μM): 39 µM
- IC50 ([3]; Methotrexate concentration 10 μM): 28 µM
- IC50 ([3]; Methotrexate concentration 20 μM): 30 µM
- IC50 ([3]; Pralatrexate concentration 0 μM): 304 µM
- IC50 ([3]; Pralatrexate concentration 0.08 μM): 32 µM
- IC50 ([3]; Pralatrexate concentration 0.16 μM): 31 µM
- IC50 ([3]; Pralatrexate concentration 0.31 μM): 25 µM
- IC50 ([3]; Pralatrexate concentration 0.63 μM): 29 µM
- IC50 ([3]; Pralatrexate concentration 1.25 μM): 18 µM
- IC50 ([3]; Pralatrexate concentration 2.5 μM): 24 µM
- IC50 ([3]; Pralatrexate concentration 5 μM): 25 µM
- IC50 ([3]; Pralatrexate concentration 10 μM): 22 µM
- IC50 ([3]; Pralatrexate concentration 20 μM): 23 µM
- Replicon inhibiting percentage ([3]; T-705 10 μM, antimetabolite 0 μM (T-705 alone)): 0.58% and 2.2% and −1.8% and −2.3% and −7.8%
- minimum drug concentration which exhibits complete CPE suppression effect ([5]; 6-mercaptopurine (10 μM) added): 0.3 µM
- minimum drug concentration which exhibits complete CPE suppression effect ([5]; 6-mercaptopurine (10 μM) and Ribavirin (3 μM) added): 0.1 µM
- minimum drug concentration which exhibits complete CPE suppression effect ([5]; used alone): 3 µM

SMILES: NC(=O)c1nccnc1O [T-1105, 3-hydroxy-pyrazinecarboxamide]
- LogTCID50 value that shows the effect of reducing the virus amount with respect to the infection control [1]: 0.0

SMILES: Cn1cnc([N+](=O)[O-])c1Sc1ncnc2nc[nH]c12 [Azathioprine, azathioprine]
- inhibition at 10 µM [3, 6]: 3.3%
- inhibition at 10 µM [3, 7]: 1.3%
- inhibition at 10 µM [3, 8]: 5.9%
- inhibition at 10 µM [3, 9]: 26%
- Replicon inhibiting percentage [3, 10]: 3.1%
- Replicon inhibiting percentage [3, 11]: −6.1%
- Replicon inhibiting percentage [3, 12]: 3.4%
- Replicon inhibiting percentage [3, 13]: 5.8%

SMILES: Cn1c(=O)c2[nH]cnc2n(C)c1=O [Theophylline, theophylline]
- LogTCID50 value that shows the effect of reducing the virus amount with respect to the infection control [1]: excellent effect of reducing the virus amount

SMILES: NC(=O)c1ncn([C@@H]2O[C@H](CO)[C@@H](O)[C@H]2O)n1 [Ribavirin]
- minimum drug concentration which exhibits complete CPE suppression effect ([5]; used alone): 30 µM

Source: patent US20220096468A1 (priority 2018, published 2022)
